Source: US20210171598A1, “PEPTIDE HORMONE WITH ONE OR MORE O-GLYCANS” (priority 2017, published 2021)

Biological target: neprilysin (NEP) (Homo sapiens, UniProt P08473)
Assay: In vitro degradation by neprilysin, MALDI-TOF time course
Conditions: 37° C.
Procedure: Many peptide hormones are destined for endocrine circulation where they are rapidly degraded with half-lives reaching only a few minutes^6-8.
For enzymatic degradation assays using either NEP or DPP-IV (R&D systems, UK), an enzyme titration was carried out to ensure full degradation within one hour of reaction time.
MALDI-TOF-MS was performed on a Bruker Autoflex instrument (Bruker Daltonik GmbH, Bremen, Germany) by mixing the quenched aliquots with a saturated solution of α-Cyano-4-hydroxycinnamic acid in ACN/H2O/TFA (70:30:0.1) at a ratio 1:1 on a target steel plate and mass-spectra were acquired in linear mode.
Reactions were performed in 50 mM Tris, 0.05% Brij-35, pH 9 (Neprilysin), or 50 mM Tris, 20 mM NaCl, pH 7.5 (IDE) and incubated at 37° C.

Sequence of neprilysin (NEP) (P08473 whole entry): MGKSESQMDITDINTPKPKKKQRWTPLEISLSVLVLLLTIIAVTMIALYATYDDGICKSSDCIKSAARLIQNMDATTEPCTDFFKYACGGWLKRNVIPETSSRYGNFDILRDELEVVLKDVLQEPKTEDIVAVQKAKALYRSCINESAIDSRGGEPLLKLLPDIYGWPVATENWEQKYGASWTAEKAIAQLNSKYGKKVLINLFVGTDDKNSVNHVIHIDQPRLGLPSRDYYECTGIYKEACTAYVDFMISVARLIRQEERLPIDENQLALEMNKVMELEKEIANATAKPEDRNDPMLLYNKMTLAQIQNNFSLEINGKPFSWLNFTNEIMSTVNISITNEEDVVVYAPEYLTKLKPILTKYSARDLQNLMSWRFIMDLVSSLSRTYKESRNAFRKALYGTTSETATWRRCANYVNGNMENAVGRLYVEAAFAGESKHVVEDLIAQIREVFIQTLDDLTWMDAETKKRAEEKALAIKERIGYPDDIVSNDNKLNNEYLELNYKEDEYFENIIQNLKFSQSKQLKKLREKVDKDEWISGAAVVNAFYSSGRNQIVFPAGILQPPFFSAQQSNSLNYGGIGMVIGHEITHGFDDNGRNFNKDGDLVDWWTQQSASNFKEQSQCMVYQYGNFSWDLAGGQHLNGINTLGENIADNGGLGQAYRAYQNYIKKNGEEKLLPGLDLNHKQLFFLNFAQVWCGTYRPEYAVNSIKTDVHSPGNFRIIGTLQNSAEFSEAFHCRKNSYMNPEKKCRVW

**Q.** Which results are given for `CC[C@H](C)[C@@H]1NC(=O)[C@H](CCCNC(=N)N)NC(=O)[C@H](CC(=O)O)NC(=O)[C@H](CCSC)NC(=O)[C@H](CCCNC(=N)N)NC(=O)CNC(=O)CNC(=O)[C@H](Cc2ccccc2)NC(=O)[C@@H](NC(=O)[C@H](CO)NC(=O)[C@H](CO)NC(=O)[C@H](CCCNC(=N)N)NC(=O)[C@H](CCCNC(=N)N)NC(=O)[C@H](CC(C)C)NC(=O)[C@@H](N)CO)CSSC[C@@H](C(=O)N[C@@H](CC(N)=O)C(=O)N[C@@H](CO[C@H]2O[C@H](CO)[C@H](O)[C@H](O)[C@H]2NC(C)=O)C(=O)N[C@@H](Cc2ccccc2)C(=O)N[C@@H](CCCNC(=N)N)C(=O)N[C@@H](Cc2ccc(O)cc2)C(=O)O)NC(=O)CNC(=O)[C@H](CC(C)C)NC(=O)CNC(=O)[C@H](CO[C@H]2O[C@H](CO)[C@H](O)[C@H](O)[C@H]2NC(C)=O)NC(=O)[C@H](CCC(N)=O)NC(=O)[C@H](C)NC(=O)CNC1=O` [ANP-Ser19+25/Tn]?
**A.** major degradation products remained detectable after incubation with neprilysin: 24 h; residual full length / partially intact peptide detectable after incubation with NEP (MALDI-TOF): 30 min

**Q.** For `CC[C@H](C)[C@@H]1NC(=O)[C@H](CCCNC(=N)N)NC(=O)[C@H](CC(=O)O)NC(=O)[C@H](CCSC)NC(=O)[C@H](CCCNC(=N)N)NC(=O)CNC(=O)CNC(=O)[C@H](Cc2ccccc2)NC(=O)[C@@H](NC(=O)[C@H](CO)NC(=O)[C@H](CO)NC(=O)[C@H](CCCNC(=N)N)NC(=O)[C@H](CCCNC(=N)N)NC(=O)[C@H](CC(C)C)NC(=O)[C@@H](N)CO)CSSC[C@@H](C(=O)N[C@@H](CC(N)=O)C(=O)N[C@@H](CO)C(=O)N[C@@H](Cc2ccccc2)C(=O)N[C@@H](CCCNC(=N)N)C(=O)N[C@@H](Cc2ccc(O)cc2)C(=O)O)NC(=O)CNC(=O)[C@H](CC(C)C)NC(=O)CNC(=O)[C@H](CO[C@H]2O[C@H](CO)[C@H](O)[C@H](O)[C@H]2NC(C)=O)NC(=O)[C@H](CCC(N)=O)NC(=O)[C@H](C)NC(=O)CNC1=O` [ANP-Ser19/Tn], which “major degradation products remained detectable after incubation with neprilysin” value is on record?
**A.** Its value is 24 h.

**Q.** What about the “residual full length / partially intact peptide detectable after incubation with NEP” value (MALDI-TOF) of the same molecule?
**A.** The value was 60 min.

**Q.** Which “residual full length / partially intact peptide detectable after incubation with NEP” value (MALDI-TOF) does the source give for `CC[C@H](C)[C@@H]1NC(=O)[C@H](CCCNC(=N)N)NC(=O)[C@H](CC(=O)O)NC(=O)[C@H](CCSC)NC(=O)[C@H](CCCNC(=N)N)NC(=O)CNC(=O)CNC(=O)[C@H](Cc2ccccc2)NC(=O)[C@@H](NC(=O)[C@H](CO)NC(=O)[C@H](CO)NC(=O)[C@H](CCCNC(=N)N)NC(=O)[C@H](CCCNC(=N)N)NC(=O)[C@H](CC(C)C)NC(=O)[C@@H](N)CO)CSSC[C@@H](C(=O)N[C@@H](CC(N)=O)C(=O)N[C@@H](CO[C@H]2O[C@H](CO)[C@H](O)[C@H](O)[C@H]2NC(C)=O)C(=O)N[C@@H](Cc2ccccc2)C(=O)N[C@@H](CCCNC(=N)N)C(=O)N[C@@H](Cc2ccc(O)cc2)C(=O)O)NC(=O)CNC(=O)[C@H](CC(C)C)NC(=O)CNC(=O)[C@H](CO)NC(=O)[C@H](CCC(N)=O)NC(=O)[C@H](C)NC(=O)CNC1=O` [ANP-Ser25/Tn] here?
**A.** Its value is 15 min.

**Q.** With `CC(C)C[C@H](NC(=O)CNC(=O)[C@H](CCC(N)=O)NC(=O)[C@H](CC(C)C)NC(=O)[C@H](CC(C)C)NC(=O)[C@H](CCCNC(=N)N)NC(=O)[C@H](CCC(N)=O)NC(=O)[C@H](CC(C)C)NC(=O)[C@H](CCCNC(=N)N)NC(=O)[C@H](C)NC(=O)CNC(=O)[C@H](CCC(=O)O)NC(=O)[C@H](CCCNC(=N)N)NC(=O)[C@H](CC(C)C)NC(=O)[C@H](CCCNC(=N)N)NC(=O)[C@H](CO)NC(=O)[C@H](CC(C)C)NC(=O)[C@H](CCC(=O)O)NC(=O)[C@H](CO)NC(=O)[C@@H](NC(=O)[C@H](Cc1ccccc1)NC(=O)[C@@H](NC(=O)CNC(=O)[C@H](CC(=O)O)NC(=O)[C@H](CO)NC(=O)[C@@H](N)Cc1c[nH]cn1)[C@@H](C)O)[C@@H](C)O)C(=O)N[C@H](C(N)=O)C(C)C` [Secretin, reference compound] as the molecule, how does the “time to complete degradation by NEP” value (MALDI-TOF) read?
**A.** The value was ≤ 60 min.
